Structures can show the parent of a compound that is named as a salt.
What was measured:
male mice of BALB/c line = assay: Mice Behavior in the Elevated Plus Maze; assay type: in vivo, mouse
Method: Anxiolytic activity of compounds 1.1(11), 1.2.7(1), 1.2.6(1), 1.2.3(1), 1.2.11(1), 1.2.22(1), 1.2.22(18) in test “Mice Behavior in the Elevated Plus Maze”. The experiments were carried out in aged male mice of BALB/c line weighing about 25 g. The animals were housed 5-7 per cage with water and food available. None of the animals was acquainted with the experimental set-up before. Each experimental group included 8 animals.
The procedure used was described earlier by Lister (Lister R. G. The use of a plus-maze to measure anxiety in the mouse. Psychopharmacology, 1987; 92:180-185). Plexiglass set-up consisted of two opened arms of 30×5 cm size and two closed arms of 30×5×15 cm size. Side arms were closed with transparent plexiglass and were connected with the central zone via a platform of 5×5 cm size. The opened arms, central platform and floor were made of black plexiglass. The set-up was mounted on a metallic base which was placed 38.5 cm above the floor level.
The animals were injected intraperitoneally with placebo, Buspirone (5 mg/kg, 30 minutes before training), Lorazepam (0.05 mg/kg, 60 minutes before training) or with one of the tested compounds 1.1(11), 1.2.7(1), 1.2.6(1), 1.2.3(1), 1.2.11(1), 1.2.22(1), 1.2.22(18). Buspirone and Lorazepam were introduced in a maximal effective dose, at which side sedative effect and general decrease of exploratory activity (the number of arm entries during the test) were not observed yet.
Each mouse was placed in the maze center with its head towards the opened arm. Over a period of 5 minutes the sequence and duration of arm entries were registered by means of a computer program. Criterion for entry is a location of all animal's paws inside the arm at the same time. The index of preference was calculated as a ratio of the time spent by the animal in the opened arms as well as the number of entries into the opened arms to the total time spent by it in the opened and closed arms or, respectively, to the whole number of entries to the arms of both types. The number of defecations left by a mouse was regarded as an additional parameter characterizing the anxiety state. Being in normal state the animals usually avoid open arms (the preference index is between 0.2 and 0.3).

5-HT6 receptor [1] = biological target: T1, 5-HT6 receptor (Homo sapiens (Human), UniProt P50406); assay: functional assay for serotonin 5-HT6 receptor inhibition (serotonin-induced intracellular cAMP, LANCE cAMP kit, HEK 293 cells); assay type: cell-based; details: HEK 293 cells with expressed 5-HT6 receptor; reduction of serotonin-induced intracellular cAMP
Method: Determination of antagonistic activity of compounds of the general formula 1 towards 5-HT6 receptors. Compounds of the general formula 1 were tested for their ability to prevent 5-HT6 receptors activation by serotonin. HEK 293 cells (cells of human embryo's kidney) with artificially expressed 5-HT6 receptor, activation of which by serotonin leads to increasing the concentration of intracellular cAMP, were used. The level of intracellular cAMP was determined using reagent kit LANCE cAMP (PerkinElmer) according to the method described by the manufacturer of the kit [http://las.perkinelmer.com/content/Manuals/MAN_LANCEcAMP384KitUser.pdf]. Effectiveness of the compounds was estimated by their ability to reduce the level of intracellular cAMP induced by serotonin. Table 4 presents IC50 values for the compounds of general formula 1 in the setting of functional assay for serotonin 5-HT6 receptor inhibition. The data given testify their moderate or high antagonistic activity.

5-HT6 receptor [2] = biological target: T1, 5-HT6 receptor; assay: competitive radioligand binding ([3H] Lysergic acid diethylamide) to serotonin 5-HT6 receptors, HeLa cell membranes; details: read-out: IC50, competitive assay of serotonin 5-HT6 receptor inhibition; displacement of 1.5 nM [3H] Lysergic acid diethylamide, 120 min at 37° C.
Method: Determination of activity of the compounds of the general formula 1 in the setting of competitive binding to serotonin 5-HT6 receptors.
Screening of the disclosed compounds for their potential ability to interact with serotonin 5-HT6 receptors was carried out by method of radioligand binding. For this purpose membrane species were prepared from expressing recombinant human 5-HT6 receptors HeLa cells by means of their homogenization in glass homogenizer with subsequent separation of plasmatic membranes from cell nucli, mitochondria's and cell wreckages by differential centrifugation. Determination of tested compounds binding to 5-HT6 receptors was carried out according to the method described in [Monsma F J Jr, Shen Y, Ward R P, Hamblin M W and Sibley D R, Cloning and expression of a novel serotonin receptor with high affinity for tricyclic psychotropic drugs. […] After incubation the samples were filtered in vacuo on glass-microfiber filters G/F (Millipor, USA), filters were washed three times with cold solution of the medium and radioactivity was measured by scintillation counter MicroBeta 340 (PerkinElmer, USA). Nonspecific binding which made up 30% of overall binding was determined by incubation of membrane preparations with radioligand in the presence of 5 μM Serotonin (5-HT). Methiothepin was used as positive control. Binding of the tested compounds to the receptor was determined by their ability to displace the radioligand and expressed in percent of displacement. The percent of displacement was calculated according to the following equation:
[formula] wherein: TA—was overall radioactivity in the presence of radioligand only, CA—was radioactivity in the presence of radioligand and tested compound and NA—was radioactivity in the presence of radioligand and Serotonin (5 μM).

male mice of SHK line = assay: Novel object recognition test, Scopolamine amnesia model; assay type: in vivo, mouse; details: Scopolamine 1 mg/kg i.p.
Method: 14.1.2. Novel object recognition test. The test was carried out in aged male mice of SHK line. […] A mouse was placed into the central chamber and allowed to explore the maze. The floor was cleaned after each animal. The sequence of chamber entries and duration of visits were registered by the observer. The test was ended after 13 entries into the dead-end chambers. Criterion for entry was a location of all animal's paws inside the chamber at the same time.
During the training the animal was placed in the maze with one equiform bowl in each side chamber. In the course of testing (one hour after training) two opposite standing bowls were replaced by identical flasks, and the animal was allowed to explore the maze. The time spent by the animal in each side chamber was registered during the periods of training and testing. Index of novel object recognition was calculated as the ratio of time spent by the animal in the side chambers with novel objects to the total time spent by it in all side chambers.

Mice of SHK line = assay: Prepulse inhibition of the startle response in mice (Apomorphine model); assay type: in vivo, mouse; details: 1 mg/kg i.p. 60 minutes before the test; FIG. 17
Method: Mice of SHK line weighing about 24-30 g were used in the test. The experiments were carried out during the light period of animal's diurnal. Apomorphine hydrochloride and Haloperidol were received from Sigma Chemicals Company, (USA). Apomorphine hydrochloride was dissolved in 0.1% solution of ascorbic acid prepared with sterilized water; it was introduced subcutaneously 15 minutes before the test. Haloperidol was dissolved in sterilized water using emulsifier Twin 80, it was introduced intraperitoneally 60 minutes before the test. Compounds 1.2.22(1), 1.2.22(18), 1.2.7(1) were dissolved in sterilized water and introduced intraperitoneally 60 minutes before the test. The injection volume was 10 ml/kg. 0.1%. Solution of ascorbic acid, prepared with sterilized water and Twin 80, was injected to control group of animals.
The test instrument consisted of a chamber made of transparent plexiglass (manufacturer—Columbia Instruments Company, USA) and placed on the platform; the latter was lodged inside the sound insulating chamber. A high frequency sound column transmitting acoustic stimuluses was located 2 cm away from the platform. […] The level of background noise made up 65 dB. Each animal received 4 stimuli of single testing (pulse) stimulus of 50 ms duration and 105 dB or prepulsory stimulus (pre-pulse) of 20 ms duration and 85 dB, after which in 30 ms pulse stimulus of 50 ms duration and 105 dB followed. Time interval between repeated pulse or prepulse in combination with pulse stimuli made up 10 s. Inhibition of the startle in reply to prepulse-plus-pulse stimulus was calculated in percentage towards amplitude of startle in response to isolated pulse stimulus.

rats = assay: Passive avoidance in the shuttle chamber, amnesia caused by MK-801, rats; assay type: in vivo, rat; details: MK-801 0.1 mg/kg i.p., compounds injected 60 minutes before the test, FIG. 8-10

T1 sequence (P50406 whole entry): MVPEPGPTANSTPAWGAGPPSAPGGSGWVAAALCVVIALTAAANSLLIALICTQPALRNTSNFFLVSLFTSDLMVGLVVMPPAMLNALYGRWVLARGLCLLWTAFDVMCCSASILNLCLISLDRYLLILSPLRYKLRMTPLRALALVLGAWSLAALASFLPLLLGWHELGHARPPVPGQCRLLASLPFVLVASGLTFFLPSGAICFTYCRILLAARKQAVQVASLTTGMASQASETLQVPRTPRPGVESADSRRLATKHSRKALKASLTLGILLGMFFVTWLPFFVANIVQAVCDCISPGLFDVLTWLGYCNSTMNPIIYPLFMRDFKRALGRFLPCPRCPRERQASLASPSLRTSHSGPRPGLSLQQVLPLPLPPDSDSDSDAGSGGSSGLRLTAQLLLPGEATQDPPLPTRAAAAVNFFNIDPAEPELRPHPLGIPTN

SMILES	IC50 (5-HT6 receptor [1]) [nM]	IC50 (5-HT6 receptor [2]) [nM]	also measured
O=C1CC2(CCCC2)CC(=O)N1CCCCN1CCN(c2ncccn2)CC1 [Buspirone, reference compound]	–	–	anxiolytic effect in the elevated plus maze (male mice of BALB/c line; Buspirone 5 mg/kg i.p., 30 minutes before training): well-marked anxiolytic effect
CNc1nn2c(C)c(CCN)c(C)nc2c1S(=O)(=O)c1ccccc1 [1.2.22(3).HCl]	45	0.645	–
CSc1nn2ccc(C)nc2c1S(=O)(=O)c1ccc(F)cc1 [1.1.2(2), 5-methyl-2-methylsulfanyl-3-(4-fluorophenylsulfonyl)-pyrazolo[1,5-a]pyrimidine]	996	50	–
CSc1nn2c(C)ccnc2c1S(=O)(=O)c1ccccc1 [1.1.3(1), 7-methyl-2-methylsulfanyl-3-phenylsulfonyl-pyrazolo[1,5-a]pyrimidine]	1110	40	–
CNc1nn2cccnc2c1S(=O)(=O)c1cccc(Cl)c1 [1.2.1(4), 2-methylamino-3-(3-chlorophenylsulfonyl)-pyrazolo[1,5-a]pyrimidine]	24	5.01	–
Nc1c2c(nc3ccccc13)CCCC2 [Tacrine, reference compound]	–	–	prevention of Scopolamine-disturbed novel object recognition (male mice of SHK line; Tacrine 10 mg/kg i.p. 30 minutes before training): prevented
CNc1nn2c(N)cc(C)nc2c1S(=O)(=O)c1ccccc1 [1.2.11(1), 7-amino-5-methyl-2-methylamino-3-phenylsulfonyl-pyrazolo[1,5-a]pyrimidine]	12	0.293	anxiolytic activity in the elevated plus maze (male mice of BALB/c line; tested compounds i.p., FIG. 14-16): anxiolytic activity analogous to the activity of control compounds
CNc1nn2c(C)ccnc2c1S(=O)(=O)c1ccccc1 [1.2.3(1), 7-methyl-2-methylamino-3-phenylsulfonyl-pyrazolo[1,5-a]pyrimidine]	3	0.74	–
CNc1nn2c(C)c(CCC(=O)N3CCN(C)CC3)c(C)nc2c1S(=O)(=O)c1ccccc1 [1.2.19(4).HCl]	6060	306	–
CSc1nn2c(C)c(Cl)c(C)nc2c1S(=O)(=O)c1ccccc1 [1.1(4)]	300	< 10	–
CNc1nn2c(N3CCN(C)CC3)cc(C)nc2c1S(=O)(=O)c1ccccc1 [1.2.12(4).HCl]	173	4.19	–
CNc1nn2c(COC)cc(C)nc2c1S(=O)(=O)c1ccccc1 [1.2.4(1), 5-methyl-2-methylamino-7-(methoxymethyl)-3-phenylsulfonyl-pyrazolo[1,5-a]pyrimidine]	101	0.34	–
O=C1Nc2ccc(Cl)cc2C(c2ccccc2Cl)=NC1O (stereo not shown) [Lorazepam, reference compound]	–	–	anxiolytic effect in the elevated plus maze (male mice of BALB/c line; Lorazepam 0.05 mg/kg i.p., 60 minutes before training): well-marked anxiolytic effect
CNc1nn2c(OC)cc(-c3cccnc3)nc2c1S(=O)(=O)c1ccccc1 [1.2.10(3), 2-methylamino-7-methoxy-5-(pyridin-3-yl)-3-phenylsulfonyl-pyrazolo[1,5-a]pyrimidine]	12	< 10	–
CNc1nn2c(C)c(CCC(=O)N(C)CCN(C)C)c(C)nc2c1S(=O)(=O)c1ccccc1 [1.2.19(2).HCl]	1680	174	–
COc1cc(-c2cccnc2)nc2c(S(=O)(=O)c3ccccc3)c(SC)nn12 [1.1.8(3), 2-methylsulfanyl-7-methoxy-5-(pyridin-3-yl)-3-phenylsulfonyl-pyrazolo[1,5-a]pyrimidine]	< 10	< 10	–
CNc1nn2c(C)c(N)c(C)nc2c1S(=O)(=O)c1ccccc1 [1.2.22(1).HCl]	11.3	0.67	–
CNc1nn2c(C)c(CN)c(C)nc2c1S(=O)(=O)c1cccc(Cl)c1 [1.2.22(5).HCl]	10	0.227	–
CSc1nn2c(C)c(Oc3ccccc3)c(C)nc2c1S(=O)(=O)c1ccccc1 [1.1(6)]	> 10000	50	–
CNc1nn2cccnc2c1S(=O)(=O)c1ccc(F)cc1 [1.2.1(2), 2-methylamino-3-(4-fluorophenylsulfonyl)-pyrazolo[1,5-a]pyrimidine]	45	18	–
CNc1nn2c(C)c(CN)c(C)nc2c1S(=O)(=O)c1ccccc1 [1.2.22(2).HCl]	9	0.56	–
CNc1nn2c(C)c(CCC(=O)N(C)CCCN(C)C)c(C)nc2c1S(=O)(=O)c1ccccc1 [1.2.19(3).HCl]	2280	291	–
O=C(CCCN1CCC(O)(c2ccc(Cl)cc2)CC1)c1ccc(F)cc1 [Haloperidol, reference compound]	–	–	effect on Apomorphine-disturbed prepulse inhibition of startle (Mice of SHK line): prevented disturbance of prepulse inhibition of startle caused by Apomorphine
CNc1nn2c(C)c(N)c(C)nc2c1S(=O)(=O)c1ccccc1.Cl [1.2.22(1), 6-amino-5,7-dimethyl-2-methylamino-3-phenylsulfonyl-pyrazolo[1,5-a]pyrimidine]	–	–	prevention of Scopolamine-disturbed novel object recognition (male mice of SHK line; compounds i.p. 60 minutes before training, FIG. 7): prevent memory impairment caused by Scopolamine; effect on amnesia caused by MK-801 (latent period, light arm stay, dark arm entries) (rats): decrease amnesia caused by MK-801; effect on Apomorphine-disturbed prepulse inhibition of startle (Mice of SHK line): prevented disturbance of prepulse inhibition of startle caused by Apomorphine
CNc1nn2c(NCCN(C)C)cc(C)nc2c1S(=O)(=O)c1ccccc1 [1.2.12(3), 7-(2-dimethylamino)ethylamino-5-methyl-2-methylamino-3-phenylsulfonyl-pyrazolo[1,5-a]pyrimidine]	1550	69.9	–
Cc1ccc2c(c1)c1c(n2CCc2ccc(C)nc2)CCN(C)C1 [Dimebon, reference compound]	–	–	prevention of Scopolamine-disturbed novel object recognition (male mice of SHK line; Dimebon 0.1 mg/kg i.p. 5 minutes before training): prevented

— patent US8618114B2 (priority 2008, dated 2013)
